In general, GI50 refers to the concentration at which growth is held to half of that of the control.

In one series the test system is MV4-11. Briefly: Antiproliferative activity against human MV4-11 cells after 72 hrs by CelltiterGlo assay. Format: functional. The note with it: MV4-11, 72 h. (In general: ATP-based viability assays read luminescence as a measure of living cells.)
Series [1] in a line: Cytotoxicity against mouse BAF3 cells assessed as cell proliferation after 72 hrs by CelltiterGlo assay. Format: cell-based.
The subject of series [2] is Receptor-type tyrosine-protein kinase FLT3 (Homo sapiens), P36888 [UNDEFINED MUTATION]. Briefly: Inhibition of FLT3 ITD mutant (unknown origin) expressed in BaF3 cells assessed as inhibition of cell proliferation after 72 hrs by CelltiterGlo assay. Format: cell-based.

Sequence of Receptor-type tyrosine-protein kinase FLT3 (Homo sapiens), P36888 [UNDEFINED MUTATION] (P36888 whole entry, looked up, change not shown): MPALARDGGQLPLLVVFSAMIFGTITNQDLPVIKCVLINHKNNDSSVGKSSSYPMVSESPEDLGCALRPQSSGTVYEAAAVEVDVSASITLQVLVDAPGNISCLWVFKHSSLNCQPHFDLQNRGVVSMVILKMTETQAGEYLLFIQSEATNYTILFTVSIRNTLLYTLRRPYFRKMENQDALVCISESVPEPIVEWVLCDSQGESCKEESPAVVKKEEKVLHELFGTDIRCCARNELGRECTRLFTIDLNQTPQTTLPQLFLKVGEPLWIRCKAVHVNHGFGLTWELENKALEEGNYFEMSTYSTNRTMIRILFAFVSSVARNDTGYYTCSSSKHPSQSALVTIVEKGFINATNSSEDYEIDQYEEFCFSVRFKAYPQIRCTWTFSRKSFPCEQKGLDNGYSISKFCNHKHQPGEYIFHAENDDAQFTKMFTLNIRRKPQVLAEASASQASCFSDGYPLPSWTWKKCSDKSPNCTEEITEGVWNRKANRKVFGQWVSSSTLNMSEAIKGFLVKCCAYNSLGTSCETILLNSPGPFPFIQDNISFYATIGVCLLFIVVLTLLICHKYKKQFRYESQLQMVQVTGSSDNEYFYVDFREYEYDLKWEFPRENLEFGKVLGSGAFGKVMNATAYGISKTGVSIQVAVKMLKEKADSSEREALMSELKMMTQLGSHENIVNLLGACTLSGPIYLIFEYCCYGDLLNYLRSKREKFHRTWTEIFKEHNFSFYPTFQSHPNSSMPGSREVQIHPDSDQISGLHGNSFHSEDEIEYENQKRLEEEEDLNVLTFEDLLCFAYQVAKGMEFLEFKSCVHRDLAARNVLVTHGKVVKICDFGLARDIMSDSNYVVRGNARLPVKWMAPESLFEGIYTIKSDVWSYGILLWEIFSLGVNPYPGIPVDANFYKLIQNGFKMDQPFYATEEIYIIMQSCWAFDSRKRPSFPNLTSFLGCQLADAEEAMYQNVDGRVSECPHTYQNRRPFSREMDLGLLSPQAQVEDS

`CN(C)CC(=O)N1CCC[C@H](n2nc(-c3ccc(Oc4ccccc4)cc3)c3c(N)ncnc32)C1`: the GI50 with MV4-11 came to 280 nM; in series [2], 120 nM. For the same molecule, the GI50 at 72 h in series [1] was determined as 5800 nM.

Consider `CCCC(=O)N1CCC[C@@H](n2nc(-c3ccc(Oc4ccccc4)cc3)c3c(N)ncnc32)C1`, for which the figures for the concentration for 50% growth inhibition (GI50) (with MV4-11; in series [2]) were 1200 nM and 450 nM, respectively. The GI50 at 72 h in series [1] is over 10000 nM.

`CC(=O)N1CCC[C@@H](n2nc(-c3ccc(Oc4ccccc4)cc3)c3c(N)ncnc32)C1`: the GI50 was 350 nM with MV4-11 and 70 nM in series [2]. For the same molecule, the GI50 at 72 h in series [1] is 5500 nM.

Regarding `CN1CCC(C(=O)N2CCC[C@@H](n3nc(-c4ccc(Oc5ccccc5)cc4)c4c(N)ncnc43)C2)CC1`, the GI50 is 160 nM in the series with MV4-11 and 77 nM in series [2]. Further, the GI50 at 72 h in series [1] was found to be 5000 nM.

`CCC(C)(C)C(=O)N1CCC[C@@H](n2nc(-c3ccc(Oc4ccccc4)cc3)c3c(N)ncnc32)C1`: the figures for the GI50 (in the series with MV4-11; in series [2]) were 2400 nM and 260 nM, respectively. Besides, the GI50 at 72 h in series [1] came to 4500 nM.

As for `C[C@@H](N)C(=O)N1CCC[C@@H](n2nc(-c3ccc(Oc4ccccc4)cc3)c3c(N)ncnc32)C1`, the GI50 with MV4-11 is 54 nM; in series [2], 22 nM. The GI50 at 72 h in series [1] came to 3800 nM.

As to `CN(C)CC(=O)N1CC[C@@H](n2nc(-c3ccc(Oc4ccccc4)cc3)c3c(N)ncnc32)C1`, the figures for the GI50 (in the series on MV4-11; in series [2]) were 83 nM and 41 nM, respectively. Besides, the GI50 at 72 h in series [1] stood at 8420 nM.

Regarding `C=CC(=O)N1CCC[C@@H](n2nc(-c3ccc(Oc4ccccc4)cc3)c3c(N)ncnc32)C1` [IBRUTINIB], the GI50 at 72 h in series [1] is over 10000 nM. For the same molecule, the GI50 in series [2] stood at 120 nM.

With `CCS(=O)(=O)N1CCC[C@@H](n2nc(-c3ccc(Oc4ccccc4)cc3)c3c(N)ncnc32)C1`, the values for the GI50 (in the series on MV4-11; in series [2]) were 570 nM and 140 nM, respectively. In series [1], the concentration for 50% growth inhibition (GI50) at 72 h stood at 4000 nM.

In the case of `CC(C)(C)C(=O)N1CCC[C@@H](n2nc(-c3ccc(Oc4ccccc4)cc3)c3c(N)ncnc32)C1`, the GI50 in the series with MV4-11 was over 10000 nM; in series [2], 1800 nM. Also, the GI50 at 72 h in series [1] is over 10000 nM.

In the case of `Nc1ncnc2c1c(-c1ccc(Oc3ccccc3)cc1)nn2[C@@H]1CCCN(C(=O)C2CC2)C1`, the GI50 in the series with MV4-11 is 6500 nM; in series [2], 1400 nM. Also, in series [1], the GI50 at 72 h was over 10000 nM.

As to `NCC(=O)N1CCC[C@@H](n2nc(-c3ccc(Oc4ccccc4)cc3)c3c(N)ncnc32)C1`, the GI50 in the series with MV4-11 was found to be 22 nM; in series [2], 7 nM. Further, the GI50 at 72 h in series [1] came to 3800 nM.

Consider `CC(C)C[C@@H](N)C(=O)N1CC[C@@H](n2nc(-c3ccc(Oc4ccccc4)cc3)c3c(N)ncnc32)C1`, for which the figures for the GI50 (in the series on MV4-11; in series [2]) were 120 nM and 41 nM, respectively. The GI50 at 72 h in series [1] worked out at 2150 nM.

Take `NCCC(=O)N1CCC[C@@H](n2nc(-c3ccc(Oc4ccccc4)cc3)c3c(N)ncnc32)C1`: the GI50 in the series with MV4-11 was 750 nM; in series [2] it was 390 nM. Moreover, in series [1], the GI50 at 72 h is over 10000 nM.

For `CC[C@@H](C)[C@@H](N)C(=O)N1CCC[C@@H](n2nc(-c3ccc(Oc4ccccc4)cc3)c3c(N)ncnc32)C1`, the GI50 in the series with MV4-11 is 120 nM; in series [2] it was 88 nM. Also, the concentration for 50% growth inhibition (GI50) at 72 h in series [1] stood at 1700 nM.

Take `CC(C)(C)CC(=O)N1CCC[C@@H](n2nc(-c3ccc(Oc4ccccc4)cc3)c3c(N)ncnc32)C1`: the 50% growth inhibitory concentration (GI50) with MV4-11 turned out to be 2400 nM; in series [2], 460 nM. For the same molecule, the GI50 at 72 h in series [1] came out at 4600 nM.

Turning to `CC(C)C[C@@H](N)C(=O)N1CCC(n2nc(-c3ccc(Oc4ccccc4)cc3)c3c(N)ncnc32)CC1`, the figures for the GI50 (in the series with MV4-11; in series [2]) were 210 nM and 75 nM, respectively. Also, in series [1], the GI50 at 72 h came out at 590 nM.

Turning to `NCC(=O)N1CC[C@@H](n2nc(-c3ccc(Oc4ccccc4)cc3)c3c(N)ncnc32)C1`, the GI50 in the series on MV4-11 worked out at 180 nM; in series [2] it was 80 nM. Besides, the GI50 at 72 h in series [1] is 7590 nM.

Take `Nc1ncnc2c1c(-c1ccc(Oc3ccccc3)cc1)nn2[C@@H]1CCCN(C(=O)[C@H](N)CO)C1`: the GI50 stood at 61 nM in the series with MV4-11 and 46 nM in series [2]. Moreover, the GI50 at 72 h in series [1] was determined as 6500 nM.

As to `CC(C)[C@@H](N)C(=O)N1CCC[C@@H](n2nc(-c3ccc(Oc4ccccc4)cc3)c3c(N)ncnc32)C1`, the concentration for 50% growth inhibition (GI50) with MV4-11 is 27 nM; in series [2], 17 nM. The GI50 at 72 h in series [1] is 1400 nM.

For `CN1CCN(CC(=O)N2CCC[C@@H](n3nc(-c4ccc(Oc5ccccc5)cc4)c4c(N)ncnc43)C2)CC1`, the GI50 in the series on MV4-11 came to 230 nM; in series [2], 93 nM. Further, the GI50 at 72 h in series [1] came out at 2300 nM.

On to `CS(=O)(=O)N1CCC[C@@H](n2nc(-c3ccc(Oc4ccccc4)cc3)c3c(N)ncnc32)C1`, for which the GI50 in the series with MV4-11 was determined as 170 nM; in series [2] it was 48 nM. Moreover, the concentration for 50% growth inhibition (GI50) at 72 h in series [1] is over 10000 nM.

With `CCCS(=O)(=O)N1CCC[C@@H](n2nc(-c3ccc(Oc4ccccc4)cc3)c3c(N)ncnc32)C1`, the GI50 with MV4-11 is 760 nM; in series [2], 160 nM. For the same molecule, in series [1], the GI50 at 72 h worked out at 8600 nM.

Regarding `CN(C)CC(=O)N1CCC(n2nc(-c3ccc(Oc4ccccc4)cc3)c3c(N)ncnc32)CC1`, the GI50 in the series on MV4-11 is 110 nM; in series [2] it was 75 nM. In addition, the GI50 at 72 h in series [1] came to 3650 nM.

Regarding `CCC(=O)N1CCC[C@@H](n2nc(-c3ccc(Oc4ccccc4)cc3)c3c(N)ncnc32)C1`, the GI50 was determined as 130 nM with MV4-11 and 28 nM in series [2]. The GI50 at 72 h in series [1] was determined as 3800 nM.

Take `C=CC(=O)N1CCC[C@@H](n2nc(-c3ccc(/C=C/c4ccccc4)cc3)c3c(N)ncnc32)C1`: the GI50 was over 10000 nM in the series on MV4-11 and 1800 nM in series [2]. In addition, the GI50 at 72 h in series [1] was over 10000 nM.

On to `CC(C)C[C@@H](N)C(=O)N1CCC[C@@H](n2nc(-c3ccc(Oc4ccccc4)cc3)c3c(N)ncnc32)C1`, for which the 50% growth inhibitory concentration (GI50) was found to be 32 nM in the series with MV4-11 and 5 nM in series [2]. Moreover, the GI50 at 72 h in series [1] turned out to be 1300 nM.

For the molecule `Nc1ncnc2c1c(-c1ccc(Oc3ccccc3)cc1)nn2[C@@H]1CCCN(C(=O)CC2CC2)C1`, the GI50 in the series on MV4-11 was 410 nM; in series [2], 82 nM. For the same molecule, the GI50 at 72 h in series [1] is 3600 nM.

Take `CS(=O)(=O)N1CCC(n2nc(-c3ccc(Oc4ccccc4)cc3)c3c(N)ncnc32)CC1`: the GI50 stood at 630 nM in the series on MV4-11 and 190 nM in series [2]. Besides, the GI50 at 72 h in series [1] is over 10000 nM.

In the case of `CS(=O)(=O)N1CC[C@@H](n2nc(-c3ccc(Oc4ccccc4)cc3)c3c(N)ncnc32)C1`, the results for the 50% growth inhibitory concentration (GI50) (with MV4-11; in series [2]) were 420 nM and 130 nM, respectively. In addition, in series [1], the GI50 at 72 h is over 10000 nM.

Consider `CC(O)[C@@H](N)C(=O)N1CCC[C@@H](n2nc(-c3ccc(Oc4ccccc4)cc3)c3c(N)ncnc32)C1` (some centres not stated), for which the figures for the GI50 (in the series with MV4-11; in series [2]) were 64 nM and 22 nM, respectively. Moreover, in series [1], the 50% growth inhibitory concentration (GI50) at 72 h was found to be 3900 nM.
